US8877757B2, “Pyrazine derivatives and use as PI3K inhibitors” (Merck Serono SA, priority 2005, dated 2014)

Tests used:
[1] = system: Akt phosphorylation in B cells; test: IgM-induced Akt phosphorylation in B cell (human PBMC, flow cytometry); assay type: cell-based; conditions: 5 min, CD19+ IgM+ B cells in human PBMC, anti IgM for 5 minutes, read-out: IC50, inhibition of IgM-induced Akt Phosphorylation
Method: Human PBMC were prepared from a Buffy coat (Geneve Hospital) after a Ficoll gradient (FICOLL-PAQUE Plus PHARMACIA ref: 17-1440-03).
Cell concentration was adjusted to 10^6 cells per ml in RPMI (GIBCO Ref: 72400-21) without serum. Before stimulation, 90 μl of PBMC suspension was incubated with 10 μl of diluted compound in a 96 well round bottom plate for 20 minutes at 37° C.
For B cell activation, 30 μl of Fab′2 Goat anti IgM (Jackson Immuno-research) at 10 μg/ml was added to each well. After 5 minutes, cell activation was stopped with 4% paraformaldehyde (10 minutes at room temperature).
Fixed PBMC were then treated for 20 minutes with 0.15% Triton, washed twice with PBS and permeabilized with 50% methanol for 15 minutes.
PBMC were washed twice in PBS, resuspended in: PBS-4% FCS and incubated with anti P-Akt (1/100 dilution) for one hour at room temperature.
After one wash, PBMC were further stained for 30 minutes with a mixture of anti-CD19-PE (BD Biosciences), anti-IgM-FITC (BD Biosciences) and goat anti rabbit IgG-Alexa 647 (Molecular probe).
After washing, PBMC (Peripheral Blood Mononuclear Cells) were analysed on a FACSCalibur instrument (BD Biosciences) equipped with a 633 helium-neon laser, or stored at 4° C. for further analysis. 510^3 B cells events were gathered per sample in the CD19 positive region.
For the analysis, a threshold was applied on P-Akt histogram of CD 19+ IgM+ lymphocytes cells from the non-stimulated samples and the percentage of cells above this threshold was determined for each sample.

[2] = system: PKB/Akt phosphorylation in mast cells; test: SCF-induced PKB/Akt phosphorylation in mast cells; assay type: cell-based, mice; conditions: Mast cell, 0.25 h; mast cells derived from mouse bone marrow, 20 ng/mL SCF for 15 minutes; read-out: IC50, inhibition of SCF-induced Akt Phosphorylation
Method: Protocol: Primary bone marrow cells were isolated from 4-8 weeks old wild type mice and derived to mast cells by incubation with medium containing 20 ng/mL of stem cell factor (SCF) (PeproTech, Switzerland) and 20 ng/mL of IL-3 (PeproTech, Switzerland) for at least 4 weeks. Confirmation of the expression of mast cell specific surface markers was done by FACS analysis using antibodies against c-kit (cKit-PE mouse antibody; Pharmingen). Cells were maintained in culture in the presence of SCF and IL-3. To induce PKB/Akt phosphorylation, mast cells were resuspended at 2.5×10^6 cells/mL and starved in medium containing no SCF or IL-3 for 24 h. After preincubation with compounds or 1% DMSO for 20 minutes, cells were activated with 20 ng/mL of SCF for 15 minutes at 37° C., fixed in 1.5% paraformaldehyde for 20 minutes and permeabilised with 0.2% Triton X-100 for 10 minutes, at room temperature. PKB/Akt phosphorylation was visualized using phospho-Ser-473 specific Akt antibodies (Cell Signaling) and standard FACS protocols.

Compound	IC50 [1]	IC50 [2]
COc1cc(Nc2nc3ccccc3nc2NS(=O)(=O)c2cccc(CN3CCOCC3)c2)cc(OC)c1 [Example 129, N-{3-[(3,5-dimethoxyphenyl)amino]quinoxalin-2-yl}-3-(morpholin-4-ylmethyl)benzenesulfonamide]	290 nM	–
COc1cc(Nc2nc3ccccc3nc2NS(=O)(=O)c2ccccc2Cl)cc(OC)c1 [Example 38, 2-chloro-N-{3-[(3,5-dimethoxyphenyl)amino]quinoxalin-2-yl}benzene sulfonamide]	40 nM	1890 nM
COc1cc(Nc2nc3ccccc3nc2NS(=O)(=O)c2ccccc2F)cc(OC)c1 [Example 15, N-{3-[(3,5-dimethoxyphenyl)amino]quinoxalin-2-yl}-2-fluorobenzene sulfonamide]	26 nM	–
COc1ccc(OC)c(Nc2nc3ccccc3nc2NS(=O)(=O)c2ccccc2F)c1 [Example 14, N-{3-[(2,5-dimethoxyphenyl)amino]quinoxalin-2-yl}-2-fluorobenzene sulfonamide]	34 nM	–
COc1cc(Nc2nc3ccccc3nc2NS(=O)(=O)c2cccnc2)cc(OC)c1 [Example 95, N-{3-[(3,5-dimethoxyphenyl)amino]quinoxalin-2-yl}pyridine-3-sulfonamide]	–	1600 nM
COc1ccc(Cl)c(Nc2nc3ccccc3nc2NS(=O)(=O)c2ccc(C)nc2)c1 [Example 111, N-{3-[(2-chloro-5-methoxyphenyl)amino]quinoxalin-2-yl}-6-methylpyridine-3-sulfonamide]	26 nM	–
COc1ccc(C)c(Nc2nc3ccccc3nc2NS(=O)(=O)c2cccnc2)c1 [Example 101, N-{3-[(5-methoxy-2-methylphenyl)amino]quinoxalin-2-yl}pyridine-3-sulfonamide]	150 nM	–
COc1cc(Nc2nc3ccccc3nc2NS(=O)(=O)c2ccc(F)cc2)cc(OC)c1 [Example 56, N-{3-[(3,5-dimethoxyphenyl)amino]quinoxalin-2-yl}-4-fluorobenzene Sulfonamide]	–	2420 nM
COc1ccc(C)c(Nc2nc3ccccc3nc2NS(=O)(=O)c2ccc(C)nc2)c1 [Example 110, N-{3-[(5-methoxy-2-methylphenyl)amino]quinoxalin-2-yl}-6-methylpyridine-3-sulfonamide]	140 nM	–
COc1ccc(OC)c(Nc2nc3ccccc3nc2NS(=O)(=O)c2ccccc2Cl)c1 [Example 42, 2-chloro-N-{3-[(2,5-dimethoxyphenyl)amino]quinoxalin-2-yl}benzene sulfonamide]	110 nM	–
COc1cc(Nc2nc3ccccc3nc2NS(=O)(=O)c2ccc(C)nc2)cc(OC)c1 [Example 106, N-{3-[(3,5-dimethoxyphenyl)amino]quinoxalin-2-yl}-6-methylpyridine-3-sulfonamide]	–	1220 nM
COc1ccc(C)c(Nc2nc3ccccc3nc2NS(=O)(=O)c2ccc(C#N)cc2)c1 [Example 109, 4-cyano-N-{3-[(5-methoxy-2-methylphenyl)amino]quinoxalin-2-yl}benzenesulfonamide]	–	820 nM
COc1cc(Nc2nc3ccccc3nc2NS(=O)(=O)c2ccc(CN3CCOCC3)cc2)cc(OC)c1 [Example 136, N-{3-[(3,5-dimethoxyphenyl)amino]quinoxalin-2-yl}-4-(morpholin-4-ylmethyl)benzenesulfonamide]	370 nM	1220 nM

Continued by falling IC50 [2], values first:

IC50 [1]	IC50 [2]	Compound
–	680 nM	COc1cc(Nc2nc3ccccc3nc2NS(=O)(=O)c2cccc(CO)c2)cc(OC)c1 [Example 132, N-{3-[(3,5-dimethoxyphenyl)amino]quinoxalin-2-yl}-3-(hydroxymethyl)benzenesulfonamide]
–	540 nM	COc1cc(Nc2nc3ccccc3nc2NS(=O)(=O)c2ccc(CO)nc2)cc(OC)c1 [Example 135, N-{3-[(3,5-dimethoxyphenyl)amino]quinoxalin-2-yl}-6-(hydroxymethyl)pyridine-3-sulfonamide]
24 nM	410 nM	COc1cc(Nc2nc3ccccc3nc2NS(=O)(=O)c2cn(C)cn2)cc(OC)c1 [Example 20, N-{3-[(3,5-dimethoxyphenyl)amino]quinoxalin-2-yl}-1-methyl-1H-imidazole-4-sulfonamide]
40 nM	400 nM	COc1cc(Nc2nc3ccccc3nc2NS(=O)(=O)c2cccc(CN3CCN(C)CC3)c2)cc(OC)c1 [Example 137, N-{3-[(3,5-dimethoxyphenyl)amino]quinoxalin-2-yl}-3-[(4-methylpiperazin-1-yl)methyl]benzenesulfonamide]
–	390 nM	COc1cc(Nc2nc3ccccc3nc2NS(=O)(=O)c2ccc(CN3CCN(C)CC3)nc2)cc(OC)c1 [Example 149, N-{3-[(3,5-dimethoxyphenyl)amino]quinoxalin-2-yl}-6-[(4-methylpiperazin-1-yl)methyl]pyridine-3-sulfonamide]
11 nM	350 nM	COc1cc(Nc2nc3ccccc3nc2NS(=O)(=O)c2ccc(C#N)cc2)cc(OC)c1 [Example 39, 4-cyano-N-{3-[(3,5-dimethoxyphenyl)amino]quinoxalin-2-yl}benzene sulfonamide]
27 nM	270 nM	COc1cc(Nc2nc3ccccc3nc2NS(=O)(=O)c2cccc(CN(C)C)c2)cc(OC)c1 [Example 139, N-{3-[(3,5-dimethoxyphenyl)amino]quinoxalin-2-yl}-3-[(dimethylamino)methyl]benzenesulfonamide]
–	210 nM	COc1cc(Nc2nc3ccccc3nc2NS(=O)(=O)c2ccc(CO)cc2)cc(OC)c1 [Example 134, N-{3-[(3,5-dimethoxyphenyl)amino]quinoxalin-2-yl}-4-(hydroxymethyl)benzenesulfonamide]
13 nM	150 nM	COc1ccc(OC)c(Nc2nc3ccccc3nc2NS(=O)(=O)c2ccc(CN)cc2)c1 [Example 131, 4-(aminomethyl)-N-{3-[(2,5-dimethoxyphenyl)amino]quinoxalin-2-yl}benzenesulfonamide]
60 nM	130 nM	COc1cc(Nc2nc3ccccc3nc2NS(=O)(=O)c2ccc(CN3CCN(C)CC3)cc2)cc(OC)c1 [Example 130, N-{3-[(3,5-dimethoxyphenyl)amino]quinoxalin-2-yl}-4-[(4-methylpiperazin-1-yl)methyl]benzenesulfonamide]
7 nM	90 nM	COc1cc(Nc2nc3ccccc3nc2NS(=O)(=O)c2ccc(CN)s2)cc(OC)c1 [Example 150, 5-(aminomethyl)-N-{3-[(3,5-dimethoxyphenyl)amino]quinoxalin-2-yl}thiophene-2-sulfonamide]
